We go through 14 molecules from patent US20030114402A1, “Modulators of DNA cytosine-5 methyltransferase and methods for use thereof” (The Regents of the University of California, priority 1997, published 2003).

The target of series [1] is T1, DCMTase (Mus musculus, UniProt P13864).
T1 construct: DCMTase was purified from mouse erythroleukemia cells as previously described; endogenous in cells; host or cells: mouse erythroleukemia (MEL) cells; enzyme purified from them
The settings on record: previous kinetic study (Flynn et al., 1996); cited from earlier work.

Series [2] has as its target T1, DCMTase. The experiment in a line: Dead-end inhibition of poly(dI.dC:dI.dC) methylation by single-stranded DNA. It counts as biochemical. The procedure:
(§1) After preincubation at room temperature for up to 10 minutes, reactions were initiated by the addition of poly(dI.dC:dI.dC) and, if indicated, inhibitor DNA or reaction products. […] Single-stranded DNA was heated to 90° C. and quick cooled on ice, prior to initiation of the reaction. Freeze-thawed DNA produced equivalent results. Incubations were at 37° C. for 60 minutes. The poly(dI.dC:dI.dC) concentrations were 2.0, 4.0, 8.0, 16, 35, 80, 160, 250, 400, 700 and 1000 pM. In some experiments, GC-box a/b was the substrate, using 100 nM DCMTase and DNA concentrations of 0.20, 0.40, 1.0, 2.0, 4.0, 8.0, 15, 23 and 35 μM. The reaction was stopped after 60 minutes by transferring 20 μL of the reaction onto a DE 81 filter paper that was processed as described (Flynn et al., 1996). The radioactivity above the background, determined from assays without added poly(dI.dC:dI.dC), was converted to initial velocities and expressed as picomoles of methyl groups transferred to poly(dI.dC:dI.dC) per hour and plotted in double reciprocal form.
The poly(dI.dC:dI.dC) concentrations were 10, 13, 20, 40 and 100 pM. The GC-box b concentrations were: diamonds, 0; circles, 0.75 μM; triangles, 1.5 μM; squares, 5.0 μM. Incubations were at 37° C. for 60 minutes.
The poly(dI.dC:dI.dC) concentrations were 1.5, 3.0, 7.5, 15 and 20 pM. The GC-box b^MET concentrations were: squares, 0; circles, 10 nM; diamonds. 20 nM; triangles, 40 nM. Incubations were at 37° C. for 60 minutes.
The GC-box b^MET concentrations were: squares, 0; circles, 20 nM; diamonds, 40 nM; triangles, 80 nM. Incubations were at 37° C. for 60 minutes.
(§2) The Michaelis-Menton equation was used for studies into DNA length contributions to catalysis using KaliedaGraph 2.1.2 (Synergy Software). For mechanistic determinations, the nomenclature used is that of Cleland, W. W., 1963a. Biochimi. Biophysi. Acta 67:104-137. All steady-state data were analyzed using regression analyses of the appropriate initial velocity equation, listed below, using the Cleland programs (Cleland, W. W., 1979, Statistical analysis of enzyme kinetic data. Methods in Enzymol. 63:103-138).
(§3) The algorithms perform a non-linear least squares fit to the entire data set. Mechanistic determinations were made by comparison of the sigma values associated with the fit to each equation. The standard errors associated with fitted parameters and graphical analysis of the experimental data scattered around the calculated best fit lines were also considered in making an assignment.

Series [3] deals with mouse erythroleukemia (MEL) cells. The experiment in a line: Anti-proliferative effects on MEL cells. Particulars: for growth rate of MEL cells: incubation with inhibitor, concentration dependent. The class given is cell-based.
Series [4] has as its target T1, DCMTase. The experiment in a line: Product inhibition studies, steady-state. It counts as biochemical. Also noted: key to Type of Inhibition: C: competitive; NC: noncompetitive; UC: uncompetitive inhibition. The protocol: as §1
The AdoHcy concentrations were: squares, 0; diamonds, 0.75 ,μM; circles, 1.5 μM; triangles, 3.0 μM; notched squares, 6.0 μM. Incubations were at 37° C. for 60 minutes.
For the double reciprocal plot of AdoHcy product inhibition with varying poly(dI.dC:dI.dC) concentrations (FIGS. 17A-C), reactions contained 20 nM DCMTase in 100 mM Tris pH 8.0, 10 mM EDTA, 10 mM DTT, 200 μg/mL BSA. Incubations were at 37° C. for 60 minutes. The poly(dI.dC:dI.dC) concentrations were 2.5, 5.0, 10, and 20 pM. The AdoHcy concentrations were: squares, 0; diamonds, 15 μM; circles, 30 μM.
The poly(dId^mC:dId^mC) concentrations were: squares, 0; diamonds, 5.0 pM; circles, 10 pM; triangles, 20 pM. Incubations were at 37° C. for 60 minutes. Experimental data are shown scattered around lines derived from a fit to equation 5 for noncompetitive inhibition.
200 μg/mL BSA. Incubations were at 37° C. for 60 minutes. The poly(dI.dC:dI.dC) concentrations were 20, 40, 80, 120 and 160 pM. The poly(dId^mC:dId^mC) concentrations were: squares, 0; triangles, 34 pM; circles, 45 pM; diamonds, 68, notched squares, 90 pM. Experimental data are shown scattered around lines. In FIG. 19A, lines are derived from a fit to equation 4 for competitive inhibition. In FIG. 19B, lines are derived from a fit to equation 5 for noncompetitive inhibition. Both fittings are not acceptable.
as §2, §3

Series [5] has as its target DNA cytosine-5 methyltransferase (DCMTase, Dnmt1) (Mus musculus) (UniProt P13864). The experiment in a line: EMSA. Particulars: pooled generation-5 sequences vs starting pool. (Mobility shift assays separate free from complexed probe on a gel.)
The target is the same in series [6]. The experiment in a line: inhibition.
The target in series [7] is T2, DNA cytosine-5 methyltransferase (DCMTase, Dnmt1) (Mus musculus, UniProt P13864 P13864:1-1620). Briefly: EMSA; unit printed as mM (text indicates micromolar); at limit of resolution. The settings on record: tags: none; purified from mouse erythroleukemia (MEL) cells. The procedure:
(§4) Gel mobility shift assays (GMSA) were performed with minor revisions to the original procedures (Fried, M., & Crothers, D. M., 1981, Equilibria and kinetics of the lac repressor-operator interactions by polyacrylamide gel electrophoresis, Nucleic Acids Res. 9:6505-6525; Garner, M. M. & Revzin, A., 1981, A gel electrophoresis method for quantifying the binding proteins to specific DNA regions: applications to components of the Escherichia coli lactose operon regulatory system, Nucleic Acids Res. 13:3047-3060). […]
(§5) Steady-state kinetic analyses of the DCMTase with the same 30 base-pair DNA substrates used in these studies indicate that Kₘ^DNA is 1000- to 50,000-fold higher (Flynn, J., et al., 1996, Murine DNA cytosine-C5 methyltransferase: Pre-steady- and steady-state kinetic analyses with regulatory DNA sequences, Biochemistry 35:7308-7315) than the DNA concentrations used to generate FIG. 2 and used by Reale et al, 1995, supra. […] Therefore, the stability of protein:DNA was determined by keeping the enzyme at a constant concentration (100 nM) and varying the amount of added DNA (Dubey & Roberts, 1992, supra).

The target in series [8] is T2, DNA cytosine-5 methyltransferase …. Briefly: EMSA; unit printed as mM (text indicates micromolar); 100 nM enzyme, DNA varied; Hepes pH 7.4, 10 mM EDTA, on ice, no AdoMet. Particulars: tags: none; purified from mouse erythroleukemia (MEL) cells; label: 32P. The procedure:
as §4, §5

For series [9] the target is unchanged. The experiment in a line: EMSA; unit printed as mM (text indicates micromolar). The settings on record: tags: none, purified from mouse erythroleukemia (MEL) cells. The procedure:
Gel mobility shift assays (GMSA) were performed with minor revisions to the original procedures (Fried, M., & Crothers, D. M., 1981, Equilibria and kinetics of the lac repressor-operator interactions by polyacrylamide gel electrophoresis, Nucleic Acids Res. 9:6505-6525; Garner, M. M. & Revzin, A., 1981, A gel electrophoresis method for quantifying the binding proteins to specific DNA regions: applications to components of the Escherichia coli lactose operon regulatory system, Nucleic Acids Res. 13:3047-3060). All reactions were done in 100 mM Hepes pH 7.4, 10 mM EDTA, 10 mM DTT, […], 5% glycerol using the indicated P-labeled DNA and DCMTase concentrations, incubated on ice for 5 minutes and loaded on a 1×TBE(89 mM Tris-HCl pH 8.3, 89 mM boric acid, 2 mM EDTA), 6% polyacrylamide gel. Electrophoresis was done at 250 V, 9 mA for 2 hours at 4° C. and the dried gel was exposed to film overnight. The reaction conditions for buffer, temperature, incubation time, cofactor addition and gel composition have all been optimized. Only slightly better complex resolution was obtained under the listed conditions compared to a 10 minute incubation at 37° C. prior to gel loading at room temperature and containing either cofactor S-adenosyl-L-methionine, product S-adenosyl-L-homocysteine, or the AdoMet analog sinefungin. Hepes reaction buffer at pH 7.4 produced sharper banding than Tris-HCl at pH 8.0. […] Subsequent assays used a limiting and constant enzyme concentration with varying DNA concentrations.
as §5

“Also recorded” adds a separate entry of the source. [5mC] = 5-methylcytosine Bounds are passed on as bounds.

T1 sequence (P13864 whole entry): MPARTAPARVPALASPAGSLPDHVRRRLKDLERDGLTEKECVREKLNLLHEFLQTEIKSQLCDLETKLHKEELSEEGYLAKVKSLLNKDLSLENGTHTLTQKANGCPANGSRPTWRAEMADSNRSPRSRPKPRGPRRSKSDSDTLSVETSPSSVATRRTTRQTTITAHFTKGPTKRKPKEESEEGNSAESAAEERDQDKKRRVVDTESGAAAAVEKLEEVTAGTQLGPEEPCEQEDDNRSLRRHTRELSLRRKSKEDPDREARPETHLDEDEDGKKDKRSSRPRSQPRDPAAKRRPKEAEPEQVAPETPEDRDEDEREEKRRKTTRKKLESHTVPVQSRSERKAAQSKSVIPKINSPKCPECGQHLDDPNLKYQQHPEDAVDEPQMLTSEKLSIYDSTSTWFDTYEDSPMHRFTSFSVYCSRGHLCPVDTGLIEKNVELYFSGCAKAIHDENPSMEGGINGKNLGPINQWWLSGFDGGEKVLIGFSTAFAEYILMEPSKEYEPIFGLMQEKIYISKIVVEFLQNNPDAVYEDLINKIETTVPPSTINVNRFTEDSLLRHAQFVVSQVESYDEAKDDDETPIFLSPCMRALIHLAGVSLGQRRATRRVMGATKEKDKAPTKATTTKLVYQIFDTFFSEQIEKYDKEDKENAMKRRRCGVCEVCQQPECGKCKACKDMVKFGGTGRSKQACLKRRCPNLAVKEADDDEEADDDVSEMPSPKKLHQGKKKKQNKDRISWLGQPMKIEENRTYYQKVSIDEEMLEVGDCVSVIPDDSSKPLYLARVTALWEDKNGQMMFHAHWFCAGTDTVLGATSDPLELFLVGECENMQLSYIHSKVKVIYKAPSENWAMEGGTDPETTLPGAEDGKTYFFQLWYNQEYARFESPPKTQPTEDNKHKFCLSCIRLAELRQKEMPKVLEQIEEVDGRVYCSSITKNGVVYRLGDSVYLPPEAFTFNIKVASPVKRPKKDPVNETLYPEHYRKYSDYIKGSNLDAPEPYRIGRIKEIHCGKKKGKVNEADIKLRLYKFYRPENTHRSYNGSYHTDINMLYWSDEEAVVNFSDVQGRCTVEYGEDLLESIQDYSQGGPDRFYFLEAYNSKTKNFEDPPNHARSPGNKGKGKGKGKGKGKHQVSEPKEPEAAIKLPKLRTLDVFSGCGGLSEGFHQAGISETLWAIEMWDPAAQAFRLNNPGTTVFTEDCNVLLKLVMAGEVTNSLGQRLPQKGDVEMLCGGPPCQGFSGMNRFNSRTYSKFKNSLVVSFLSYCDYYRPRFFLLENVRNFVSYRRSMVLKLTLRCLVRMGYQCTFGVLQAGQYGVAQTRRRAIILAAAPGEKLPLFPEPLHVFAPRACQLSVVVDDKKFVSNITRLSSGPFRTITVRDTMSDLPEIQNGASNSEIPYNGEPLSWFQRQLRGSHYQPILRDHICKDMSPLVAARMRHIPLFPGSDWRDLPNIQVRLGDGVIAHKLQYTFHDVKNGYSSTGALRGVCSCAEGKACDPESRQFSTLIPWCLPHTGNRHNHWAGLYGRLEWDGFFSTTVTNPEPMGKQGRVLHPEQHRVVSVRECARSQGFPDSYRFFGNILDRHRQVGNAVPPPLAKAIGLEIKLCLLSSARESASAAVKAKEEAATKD
T2 sequence (P13864 whole entry, one chain of several): as the sequence (P13864 whole entry) above
DNA cytosine-5 methyltransferase (DCMTase, Dnmt1) (Mus musculus), sequence (P13864 whole entry): as above

On to “5′-CTGGATCCTTGCCCCGCCCCTTGAATTCCC-3′ (DNA, backbone not given here) [GC-box b]”, for which the “enzyme activity with single-stranded substrate” value with DCMTase [1] was “no detectable enzyme activity”. Further, the “Mode of Inhibition” value in the series with DCMTase [2] is “Noncompetitive with poly(dIdC:dIdC)”. The “alpha factor, Kii/Kis” value with DCMTase [2] is 1.9. Moreover, the Ki with DCMTase [2] (poly(dI.dC:dI.dC) varied, noncompetitive fit, 15 μM AdoMet, read-out: Kii) is 6.8 µM; with DCMTase [2] (poly(dI.dC:dI.dC) varied, noncompetitive fit, 15 μM AdoMet, read-out: Kis) it was 3.6 µM.

Regarding “5′-CTGGATCCTTGCCC^mCGCCCCTTGAATTCCC-3′ (DNA CTGGATCCTTGCCCCGCCCCTTGAATTCCC; DNA, [5mC] at 15, backbone not given here) [GC-box b^MET]”, the “Mode of Inhibition” value with DCMTase [2] is on record as “Uncompetitive with poly(dIdC:dIdC); also recorded: Competitive with Adomet”. In addition, the Ki in the series with DCMTase [2] (AdoMet varied, constant 50 pM poly(dI.dC:dI.dC), competitive fit, read-out: Inhibition Constant, slope derived (Kis), equation 4) is 0.025 µM; in the series with DCMTase [2] (Kii and Kis, read-out: the two inhibition constants in agreement), roughly 0.02 µM; in the series with DCMTase [2] (poly(dI.dC:dI.dC) varied, uncompetitive fit, 10 μM AdoMet, read-out: Inhibition Constant, intercept derived Kii, equation 6), 0.02 µM; with DCMTase [2] (read-out: KI, dissociation constant from the DCMTase:poly(dI.dC:dI.dC) complex), 0.0025 µM. For the same molecule, the “lower affinity for free enzyme in the absence of poly(dI.dC:dI.dC)” value with DCMTase [2] (compared with Example 1 binding) came to 120 fold. Also, the “lower inhibition constant (increased inhibition) versus GC-box b” value in the series with DCMTase [2] (single 5-mC substitution) was found to be 200 fold. Besides, the “growth rate of MEL cells” value in [3] is reported as “slows down the growth rate”.

“5′-GGGAATTCAAGGGGCGGGGCAAGGATCCAG-3′ (DNA, backbone not given here) [GC-box a]”: the “enzyme activity with single-stranded substrate” value in the series with DCMTase [1] is recorded as “no detectable enzyme activity”.

On to `Nc1ncnc2c1ncn2[C@@H]1O[C@H](CSCC[C@H](N)C(=O)O)[C@@H](O)[C@H]1O` [AdoHcy, S-adenosyl homocysteine], for which the Ki at DCMTase [4] (varied AdoMet, fixed poly(dIdC:dIdC), competitive, read-out: Inhibition Constant Kis) turned out to be 1.4 µM; at DCMTase [4] (varied poly(dI.dC:dI.dC), low AdoMet concentrations, read-out: Kii, noncompetitive model), 2.5 µM; at DCMTase [4] (varied poly(dI.dC:dI.dC), low AdoMet concentrations, read-out: Kii, uncompetitive model), 2 µM; at DCMTase [4] (varied poly(dI.dC:dI.dC), low AdoMet concentrations, read-out: Kis, noncompetitive model) it was 63 µM. For the same molecule, the “Type of Inhibition” value is on record as “C” at DCMTase [4] (varied substrate AdoMet, fixed substrate IC) and “NC/UC” at DCMTase [4] (varied substrate IC, fixed substrate AdoMet).

Take “GC-box p^MET: SEQ ID NO:10 with a phosphorothioate backbone (DNA CTGGATCCTTGCCCCGCCCCTTGAATTCCC; listed as DNA, chemistry not fully specified)”: the “occurrence of large multi-nucleate cells among regularly sized cells” value in series [3] (five days of incubation, 10 micromolar) is given as “about one in fifty”. Also, the “growth rate of MEL cells” value in [3] is “slows down the growth rate”.

Take “GGGAATTCATGGATCCTAAANNNNNNNNNNNNCGNNNNNNNNNNNNTTTCAAGCTTGTGATTCCC (double strand) [generation-5 selected pool]”: the binding signal (fold tighter than starting pool) in series [5] worked out at 2.

As to “poly(dI.dC:dI.dC), average 6250 or 5000 bp”, the Ki in series [6] (substrate inhibition, 6250 bp, apparent Km 5.5 +/- 0.9 pM, true Km 36 +/- 5 pM) came to 1000 pM.

In the case of poly(dI.dmC:dI.dmC), fully methylated, the Ki in series [6] (5mC at all M.SssI sites, Kis, noncompetitive product inhibition vs AdoMet, Kii 30 +/- 12 pM) was found to be 5.3 pM.

B1: CRE a (ssDNA)
DNA: GGGAATTCAAATGACGTCAAAAGGATCCAG
By Kd is commonly meant the concentration at which binding is half-saturated. On to B1, for which the Kd in series [7] was greater than 50 µM.

B2: GC-box a/bMET (dsDNA)
DNA 1: GGGAATTCAAGGGGCGGGGCAAGGATCCAG
DNA 2: CTGGATCCTTGCCCCGCCCCTTGAATTCCC
modifications: 5mC at position 15 of strand b (hemi-methylated CpG)
Turning to B2, binding in [8] was put at a Kd of 0.36 µM.

B3: CRE a/b (dsDNA)
DNA 1: GGGAATTCAAATGACGTCAAAAGGATCCAG
DNA 2: CTGGATCCTTTTGACGTCATTTGAATTCCC
The molecule B3 yielded a Kd in series [9] (label: 32P) of 1.5 µM.

B4: GC-box a (ssDNA)
DNA: GGGAATTCAAGGGGCGGGGCAAGGATCCAG
B4 gave a Kd in [9] of 1.2 µM.

B5: CRE aMET/b (dsDNA)
DNA 1: GGGAATTCAAATGACGTCAAAAGGATCCAG
DNA 2: CTGGATCCTTTTGACGTCATTTGAATTCCC
modifications: 5mC at position 15 of strand a (hemi-methylated CpG)
B5 returned a Kd in series [9] (label: 32P) of 1 µM.

B6: CRE b (ssDNA)
DNA: CTGGATCCTTTTGACGTCATTTGAATTCCC
As to B6, the Kd in [7] is greater than 50 µM.
